Calls of active or inactive are those of the source. The rule behind the calls is not given here.
Columns and labels:
Escherichia coli [1] = test: Antibacterial activity against clinical isolate Escherichia coli 718 measured after 24 hrs by broth microdilution method; assay type: functional
[2] = test system: Staphylococcus intermedius; test: Antibacterial activity against clinical isolate methicillin-resistant Staphylococcus intermedius 1143 measured after 24 hrs by broth microdilution method; assay type: functional
Klebsiella pneumoniae = test: Antibacterial activity against clinical isolate Klebsiella pneumoniae 1813 measured after 24 hrs by broth microdilution method; assay type: functional
Escherichia coli [3] = test: Antibacterial activity against Escherichia coli assessed as fold increase in MIC after 4 passages by serial dilution method; assay type: functional, organism-based; conditions: time 24.0 hrs
Bacillus subtilis = test: Antibacterial activity against Bacillus subtilis 168 measured after 24 hrs by broth microdilution method; assay type: functional
Enterococcus faecalis [4] = test: Antibacterial activity against clinical isolate Enterococcus faecalis 3063 measured after 24 hrs by broth microdilution method; assay type: functional
Staphylococcus aureus [5] = test: Antibacterial activity against Staphylococcus aureus ATCC 29213 measured after 24 hrs by broth microdilution method; assay type: functional
Pseudomonas sp. = test: Antibacterial activity against clinical isolate Pseudomonas sp. 5 measured after 24 hrs by broth microdilution method; assay type: functional
Staphylococcus aureus [6] = test: Antibacterial activity against clinical isolate methicillin-resistant Staphylococcus aureus 1053 measured after 24 hrs by broth microdilution method; assay type: functional
Staphylococcus aureus [7] = test: Antibacterial activity against Staphylococcus aureus assessed as fold increase in MIC after 8 passages by serial dilution method; assay type: functional, organism-based; conditions: time 24.0 hrs
Micrococcus luteus = test: Antibacterial activity against Micrococcus luteus clinical isolate measured after 24 hrs by broth microdilution method; assay type: functional
Staphylococcus aureus [8] = test: Antibacterial activity against clinical isolate methicillin-resistant Staphylococcus aureus 1131 measured after 24 hrs by broth microdilution method; assay type: functional
Klebsiella sp. = test: Antibacterial activity against clinical isolate Klebsiella sp. 11 measured after 24 hrs by broth microdilution method; assay type: functional
Serratia marcescens = test: Antibacterial activity against clinical isolate Serratia marcescens 1966 measured after 24 hrs by broth microdilution method; assay type: functional
[9] = Cytotoxicity against human mesenchymal stem cells assessed as cell viability measured after 72 hrs by MTT assay; assay type: cell-based
Enterococcus faecalis [10] = test: Antibacterial activity against clinical isolate Enterococcus faecalis 23 measured after 24 hrs by broth microdilution method; assay type: functional
Staphylococcus aureus [11] = test: Antibacterial activity against clinical isolate methicillin-resistant Staphylococcus aureus 983 measured after 24 hrs by broth microdilution method; assay type: functional
Acinetobacter sp. = test: Antibacterial activity against clinical isolate Acinetobacter sp. 3 measured after 24 hrs by broth microdilution method; assay type: functional
[12] = Lipophilicity, logP of the compound; assay type: physicochemical; conditions: octanol/water
Proteus sp. = test: Antibacterial activity against clinical isolate Proteus sp. 17 measured after 24 hrs by broth microdilution method; assay type: functional; conditions: Proteus sp. (in: enterobacteria)
Moraxella = test: Antibacterial activity against clinical isolate Moraxella 765 measured after 24 hrs by broth microdilution method; assay type: functional
[13] = Cytotoxicity against human skin fibroblasts assessed as cell viability measured after 72 hrs by MTT assay; assay type: cell-based, Fibroblast
Escherichia coli [14] = test: Antibacterial activity against Escherichia coli MG 1655 measured after 24 hrs by broth microdilution method; assay type: functional
Staphylococcus aureus [15] = test: Antibacterial activity against clinical isolate methicillin-resistant Staphylococcus aureus 713 measured after 24 hrs by broth microdilution method; assay type: functional
[16] = Cytotoxicity against human HEK293 cells assessed as cell viability measured after 72 hrs by MTT assay; assay type: cell-based
Staphylococcus aureus [17] = test: Antibacterial activity against clinical isolate methicillin-resistant Staphylococcus aureus 1065 measured after 24 hrs by broth microdilution method; assay type: functional
Pseudomonas aeruginosa [18] = test: Antibacterial activity against Pseudomonas aeruginosa ATCC 27853 measured after 24 hrs by broth microdilution method; assay type: functional
[19] = Acute toxicity in po dosed C57BL/6CBA mouse measured upto 7 days; assay type: organism-based; conditions: in vivo, time <=7 day
Staphylococcus aureus [20] = test: Antibacterial activity against clinical isolate Staphylococcus aureus 25 measured after 24 hrs by broth microdilution method; assay type: functional
[21] = test system: Staphylococcus intermedius; test: Antibacterial activity against clinical isolate methicillin-resistant Staphylococcus intermedius 1061 measured after 24 hrs by broth microdilution method; assay type: functional
[22] = test system: Staphylococcus ureilyticus; test: Antibacterial activity against clinical isolate Staphylococcus ureilyticus 1972 measured after 24 hrs by broth microdilution method; assay type: functional
Pseudomonas aeruginosa [23] = test: Antibacterial activity against clinical isolate Pseudomonas aeruginosa 1945 measured after 24 hrs by broth microdilution method; assay type: functional
[24] = Genotoxicity in Salmonella typhimurium TA1537 assessed as number of revertant by Ames spot test relative to solvent control; assay type: toxicity; conditions: salmonella enterica subsp. enterica serovar typhimurium
[25] = Genotoxicity in Salmonella typhimurium TA1535/pSK1002 assessed as DNA-damage activity by measuring beta-galactosidase activity at 750 ug/ml measured by SOS-chromotest relative to solvent control; assay type: toxicity; conditions: salmonella enterica subsp. enterica serovar typhimurium; dose 750 µg/ml
[26] = Genotoxicity in Salmonella typhimurium TA98 assessed as number of revertant by Ames spot test relative to solvent control; assay type: toxicity; conditions: salmonella enterica subsp. enterica serovar typhimurium
[27] = Genotoxicity in Salmonella typhimurium TA1535/pSK1002 assessed as DNA-damage activity by measuring beta-galactosidase activity at 15 ug/ml measured by SOS-chromotest relative to solvent control; assay type: toxicity; conditions: salmonella enterica subsp. enterica serovar typhimurium; dose 15 µg/ml
[28] = Genotoxicity in Salmonella typhimurium TA1535/pSK1002 assessed as DNA-damage activity by measuring beta-galactosidase activity at 150 ug/ml measured by SOS-chromotest relative to solvent control; assay type: toxicity; conditions: salmonella enterica subsp. enterica serovar typhimurium; dose 150 µg/ml
[29] = Genotoxicity in Salmonella typhimurium TA1535 assessed as number of revertant by Ames spot test relative to solvent control; assay type: toxicity; conditions: salmonella enterica subsp. enterica serovar typhimurium
[30] = Genotoxicity in Salmonella typhimurium TA100 assessed as number of revertant by Ames spot test relative to solvent control; assay type: toxicity; conditions: salmonella enterica subsp. enterica serovar typhimurium
[31] = Genotoxicity in Salmonella typhimurium TA1535/pSK1002 assessed as DNA-damage activity by measuring beta-galactosidase activity at 7.5 ug/ml measured by SOS-chromotest relative to solvent control; assay type: toxicity; conditions: salmonella enterica subsp. enterica serovar typhimurium; dose 7.5 µg/ml
[32] = Genotoxicity in Salmonella typhimurium TA1535/pSK1002 assessed as DNA-damage activity by measuring beta-galactosidase activity at 75 ug/ml measured by SOS-chromotest relative to solvent control; assay type: toxicity; conditions: salmonella enterica subsp. enterica serovar typhimurium; dose 75 µg/ml

Compound	MIC (Escherichia coli [1]) [µg/mL]	MIC [2] [µg/mL]	MIC (Klebsiella pneumoniae) [µg/mL]	MIC (Bacillus subtilis) [µg/mL]	MIC (Enterococcus faecalis [4]) [µg/mL]	MIC (Staphylococcus aureus [5]) [µg/mL]	MIC (Pseudomonas sp.) [µg/mL]	MIC (Staphylococcus aureus [6]) [µg/mL]	MIC (Micrococcus luteus) [µg/mL]	MIC (Staphylococcus aureus [8]) [µg/mL]	MIC (Klebsiella sp.) [µg/mL]	MIC (Serratia marcescens) [µg/mL]	CC50 at 72 h [9] [µg/mL]	MIC (Enterococcus faecalis [10]) [µg/mL]	MIC (Staphylococcus aureus [11]) [µg/mL]	MIC (Acinetobacter sp.) [µg/mL]	logP [12]	MIC (Proteus sp.) [µg/mL]	MIC (Moraxella) [µg/mL]	CC50 at 72 h [13] [µg/mL]	other results
CCCCCCCCCCCCCC(=O)NCCC[N+](C)(C)Cc1ccccc1.[Cl-] [MIRAMISTIN]	64	64	16	4	16	2	> 64	32	2	32	> 64	> 64	4.16	4	> 64	> 64	2.43	> 64	> 64	7.21	MIC (Escherichia coli [3]): Active; MIC (Staphylococcus aureus [7]): Active; MIC (Escherichia coli [14]): 8 µg/mL; MIC (Staphylococcus aureus [15]): 64 µg/mL; CC50 at 72 h [16]: 6.08 µg/mL; MIC (Staphylococcus aureus [17]): 32 µg/mL; MIC (Pseudomonas aeruginosa [18]): 1 µg/mL; LD50 at 168 h [19]: 1000 mg/kg; MIC (Staphylococcus aureus [20]): 16 µg/mL; MIC [21]: 64 µg/mL; MIC [22]: > 64 µg/mL; MIC (Pseudomonas aeruginosa [23]): 64 µg/mL
CCCCCCCCCCCC(=O)OCCC[N+](C)(C)Cc1cnc(C)c2c1COC(CCC)O2.[Cl-] (stereo not given)	8	16	> 64	2	4	2	32	8	1	16	32	> 64	2.42	4	32	64	2.14	> 64	64	4.32	Ratio [24]: 0.03; Ratio [25]: 0.5; Ratio [26]: 1.8; Ratio [27]: 1.4; Ratio [28]: 1.1; Ratio [29]: 0.5; MIC (Escherichia coli [14]): 4 µg/mL; Ratio [30]: 2.4; MIC (Staphylococcus aureus [15]): 16 µg/mL; CC50 at 72 h [16]: 2.15 µg/mL; MIC (Staphylococcus aureus [17]): 16 µg/mL; MIC (Pseudomonas aeruginosa [18]): 32 µg/mL; MIC (Staphylococcus aureus [20]): 8 µg/mL; MIC [21]: 16 µg/mL; MIC [22]: > 64 µg/mL; Ratio [31]: 1.4; Ratio [32]: 1.5; MIC (Pseudomonas aeruginosa [23]): > 64 µg/mL
